# In PubChem BioAssay (NCI):
#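 48-hour exposure; five concentrations; linearly interpolated endpoints. GI50 marks 50% less growth. TGI denotes the concentration required for complete inhibition of growth.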
# How the values were obtained:
# Assay in all cases: NCI tumour cell line growth inhibition, 48 h
# [1] = tested on: SN12C renal
# [2] = tested on: IGROV1 ovarian
# [3] = tested on: EKVX NSCLC
# [4] = tested on: A549 NSCLC
# [5] = tested on: U251 CNS
# [6] = tested on: NCI-H522 lung
# [7] = tested on: HS 578T breast
# [8] = tested on: OVCAR-8 ovarian
Structure (SMILES),GI50 [1] [µM],TGI [1] [µM],GI50 [2] [µM],TGI [2] [µM],GI50 [3] [µM],TGI [3] [µM],GI50 [4] [µM],TGI [4] [µM],GI50 [5] [µM],TGI [5] [µM],GI50 [6] [µM],TGI [6] [µM],GI50 [7] [µM],TGI [7] [µM],GI50 [8] [µM],TGI [8] [µM]
CCSC1=NC2C(N(CC)C(=O)N2CC)N1/N=C/C=C/c1ccccc1[N+](=O)[O-] (stereo not drawn),0.401,> 100,0.246,> 100,0.314,> 100,0.307,> 100,0.174,> 100,0.0395,46.2,0.118,> 100,0.385,> 100
COc1cc(C)ccc1C(=O)c1ccc(C)cc1OC,15.7,> 100,6.58,> 100,5.29,> 100,3.35,> 100,3.06,> 100,1.76,4.96,3.45,> 100,4.89,> 100
Oc1cccc(Nc2nc3ccccc3c3occc23)c1,13.2,25.9,,,14.6,28.5,10.9,22.8,14,27.2,14.5,28.8,13.9,31.4,13,30.5
CC(=O)c1c(C(F)(F)F)n([O-])c2ccccc2[n+]1=O,1.07,3.17,1.02,3.78,3.47,8.01,2.28,14.3,2.17,14.5,2.46,> 100,1.97,6.5,2.96,> 100
O=C1C=CC(=O)c2c1ccc1c3ccccc3n(Cc3ccc([N+](=O)[O-])cc3)c21,,> 100,,> 100,,> 100,,> 100,,> 100,,55.4,,,,> 100
O=C(Nc1cccc(Cl)c1)Nn1cnnc1,> 50,> 100,> 50,> 100,,> 100,> 50,> 100,> 50,> 100,> 50,> 100,> 50,> 100,> 50,> 100
N#C[Se]Cc1cc(-c2ccccc2)n(-c2ccc(S(N)(=O)=O)cc2)n1,0.527,4.1,0.322,1.08,0.688,12.6,0.605,2.12,0.544,1.78,2.14,5.55,0.637,5.21,1.35,> 23.2
CC(=O)Nc1ccc(-c2cc(C(=O)O)c3cc4ccccc4cc3n2)cc1,,> 100,,> 100,,> 100,,> 100,,> 100,,> 100,,> 100,,> 100
COC1=NCc2ccccc2-c2ccccc21,,> 100,,,,,,> 100,,> 100,,> 100,,,,> 100
